In PubChem BioAssay (NCI):
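Grown in 96-well plates, cells were treated for 48 hours with each compound at five concentrations. Insufficient inhibition: endpoint recorded as highest concentration tested. TGI denotes the concentration required for complete inhibition of growth.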

How the values were obtained:
Experiment in all cases: NCI-60 cell line screen, 48 h
786-0 renal = tested on: 786-0 renal
HL-60(TB) leukemia = tested on: HL-60(TB) leukemia
HOP-92 NSCLC = tested on: HOP-92 NSCLC
MDA-MB-435 = tested on: MDA-MB-435
NCI-H23 lung = tested on: NCI-H23 lung
SK-MEL-28 melanoma = tested on: SK-MEL-28 melanoma
SK-MEL-5 melanoma = tested on: SK-MEL-5 melanoma
SNB-19 CNS = tested on: SNB-19 CNS
UACC-257 melanoma = tested on: UACC-257 melanoma
SF-268 CNS = tested on: SF-268 CNS

Row | Compound | TGI (786-0 renal) | TGI (HL-60(TB) leukemia) | TGI (HOP-92 NSCLC) | TGI (MDA-MB-435) | TGI (NCI-H23 lung) | TGI (SK-MEL-28 melanoma) | TGI (SK-MEL-5 melanoma) | TGI (SNB-19 CNS) | TGI (UACC-257 melanoma) | TGI (SF-268 CNS)
1 | O=C1NC(=S)NC(=O)C1C(c1ccc(O)cc1)C1C(=O)NC(=S)NC1=O | > 100 µM | > 100 µM | > 100 µM | > 100 µM | > 100 µM | > 100 µM | > 100 µM | > 100 µM | > 100 µM | 
2 | C[C@@H](c1ccccc1)n1c(N)c(C#N)c2ccc([N+](=O)[O-])cc2c1=O | 31.3 µM | 27.7 µM | 24 µM | 61 µM | 43 µM | 39.5 µM | 50.8 µM | 29.1 µM | 40.3 µM | > 100 µM
3 | Cc1ccc2c(c1)CC1(Cc3ccccc3C1=O)C2=O (stereo not given) | > 100 µM | > 100 µM | > 100 µM | > 100 µM | > 100 µM | > 100 µM | > 100 µM | > 100 µM | > 100 µM | > 100 µM
4 | N#C/C(=C/NC(N)=S)C(N)=O | > 100 µM | > 100 µM | > 100 µM | > 100 µM | > 100 µM | > 100 µM | > 100 µM | > 100 µM | > 100 µM | > 100 µM
5 | CCCCCCCCCCCC(=O)OCC(C[As](=O)(O)O)OC(=O)CCCCCCCCCCC (stereo not given) | 26.7 µM | > 25 µM | 4.29 µM | 9.91 µM | 18 µM | 10.1 µM | 3.64 µM | 9.38 µM | 21.9 µM | > 34.1 µM
6 | O=C1CC(c2cccc([N+](=O)[O-])c2)C2(C(=O)NC(=O)NC2=O)C(c2cccc([N+](=O)[O-])c2)C1 (stereo not given) | > 100 µM | > 100 µM | > 100 µM | > 100 µM | > 100 µM | > 100 µM | > 100 µM | > 100 µM | > 100 µM | 84.1 µM
7 | O=C(NC(Cc1ccccc1)(Cc1ccc(O)cn1)C(=O)O)c1ccccc1 (stereo not given) | > 100 µM | 68.2 µM | > 100 µM | > 100 µM | > 100 µM | > 100 µM | > 100 µM | > 100 µM | > 100 µM | > 100 µM
8 | CCOC(=O)c1c(N2CCOCC2)[nH]c(=O)c(C(c2c(Cl)cccc2Cl)c2c(O)c(C(=O)OCC)c(N3CCOCC3)[nH]c2=O)c1O | 6.47 µM | 4.37 µM | 8.56 µM | 12.1 µM | 21.8 µM | 4.19 µM | 16.1 µM | 21.1 µM | 18.7 µM | 22.2 µM
9 | CCO/C=N\C1=C(C#N)SC2=N/C(=C\c3ccc(OC)cc3)C(=O)N21 | > 100 µM | > 100 µM | > 100 µM | > 100 µM | > 100 µM | > 100 µM | > 100 µM | > 100 µM | > 100 µM | > 100 µM
10 | CO/C=C(/C(=O)OC)c1ccccc1COc1cccc(C(F)(F)F)c1 | > 100 µM | 3.99 µM | 50.5 µM | 23.1 µM | > 100 µM | > 100 µM | 14.5 µM | > 100 µM | 21.3 µM | > 100 µM
11 | Cc1ccc2c3c1O[C@H]1c4[nH]c5ccccc5c4C[C@@]4(O)[C@@H](C2)N(CC2CC2)CC[C@]314 | 27.1 µM | 22.4 µM | 27.5 µM | 26.8 µM | 39.5 µM | 36.4 µM | 27.8 µM | 32.2 µM | 32.8 µM | 30.1 µM
12 | C[N+]1(C)CCc2cc(O)c(O)cc2C1Cc1ccc(O)c(O)c1 (stereo not given) | > 100 µM | 54.8 µM | 63.7 µM | 39.7 µM | > 100 µM | > 100 µM | > 100 µM | > 100 µM | 86.9 µM | > 100 µM
13 | O=C(NCP(=O)(c1ccccc1)c1ccccc1)OCc1ccccc1 | > 100 µM | > 100 µM | > 100 µM | > 100 µM | > 100 µM | > 100 µM | > 100 µM | > 100 µM |  | > 100 µM
14 | COC(=O)C1=CS/C(=C2\S[C@@H]3[C@H](S2)[C@H]2C=C[C@@H]3C2)S1 | > 100 µM | 57.9 µM | > 100 µM | 5.09 µM | > 100 µM | > 100 µM | > 100 µM | > 100 µM | > 100 µM | > 100 µM
15 | Cc1ccc([N+](=O)[O-])c2c(NCCC[N+](C)(C)[O-])c3ccccc3nc12 | 6.72 µM | 34.5 µM | 5.04 µM | 5.15 µM | 3.41 µM | 17 µM | 2.46 µM | 6.56 µM | 6.11 µM | 24.9 µM
16 | Cc1ccc(S(=O)(=O)N/N=C2/CCCOC2)cc1 | > 100 µM | > 100 µM | > 100 µM | > 100 µM | > 100 µM | > 100 µM | > 100 µM | > 100 µM | > 100 µM | > 100 µM
17 | CC1(C)OC(=O)N(c2ccccc2)C12C=Cc1cc([N+](=O)[O-])ccc1O2 (stereo not given) | > 100 µM | 63.7 µM | 86.9 µM | 62.8 µM | > 100 µM | > 100 µM | > 100 µM | > 100 µM | 77 µM | > 100 µM
18 | CCOC(C)O[C@H]1C(=O)OCC1(C)C (stereo not given in full) | > 100 µM | > 100 µM | > 100 µM | > 100 µM | > 100 µM | > 100 µM | > 100 µM | > 100 µM | > 100 µM | > 100 µM

Row | Compound | TGI (786-0 renal) | TGI (HL-60(TB) leukemia) | TGI (HOP-92 NSCLC) | TGI (MDA-MB-435) | TGI (NCI-H23 lung) | TGI (SK-MEL-28 melanoma) | TGI (SK-MEL-5 melanoma) | TGI (SNB-19 CNS) | TGI (UACC-257 melanoma) | TGI (SF-268 CNS)
19 | COC(=O)Nc1nc2ccc(S(=O)(=O)SC)cc2[nH]1 | 16.9 µM | 8.11 µM | 28 µM | 12.2 µM |  | 25.3 µM | > 100 µM | > 100 µM | 45.5 µM | > 100 µM
20 | Nc1ccc(Cc2c(N)[nH]c(=O)[nH]c2=O)cc1 | > 100 µM | > 100 µM | > 100 µM | > 100 µM | > 100 µM | > 100 µM | > 100 µM | > 100 µM | > 100 µM | > 100 µM
21 | CC(=O)[C@@H](C)C(=O)N1C(=O)OC[C@@]12[C@@H]1CC[C@@H](C1)C2(C)C | > 100 µM | > 100 µM | > 100 µM | > 100 µM | > 100 µM | > 100 µM | > 100 µM | > 100 µM | > 100 µM | 
22 | CC1S/C(=N\N=C2/C(=O)Nc3ccc(Br)cc32)N(C2CCCCC2)C1=O (stereo not given) | 6.01 µM | > 100 µM | 25.4 µM | 23.1 µM | 15.6 µM | 23.8 µM | > 100 µM | 14.8 µM | > 100 µM | 22.3 µM
23 | C/C(=N/NC(N)=S)c1ccc[nH]1 | > 100 µM | > 100 µM | > 100 µM | > 100 µM | > 100 µM | > 100 µM | > 100 µM | > 100 µM | > 100 µM | > 100 µM
24 | CCc1cc(Cc2cc(CC)c(NC(=O)C(=O)CC(=O)c3sc(-c4cccnc4)nc3C)c(CC)c2)cc(CC)c1NC(=O)C(=O)CC(=O)c1sc(-c2cccnc2)nc1C | > 100 µM | > 100 µM | > 100 µM | > 100 µM | > 100 µM | > 100 µM | > 100 µM | > 100 µM | > 100 µM | > 100 µM
25 | O=C(N/N=C\C=C\c1ccc([N+](=O)[O-])o1)C(=O)N/N=C\C=C\c1ccc([N+](=O)[O-])o1 | > 100 µM | 87.1 µM | > 100 µM | > 100 µM | > 100 µM | > 100 µM | > 100 µM | > 100 µM | > 100 µM | > 100 µM
26 | C=C(C)[C@H]1Cc2c(ccc3c2O[C@@H]2COc4cc(OC)c(OC)cc4[C@@H]2C3=O)O1 | > 86.2 µM | 0.381 µM | 18.1 µM | 0.0642 µM | 14.1 µM | 81.4 µM | 3.04 µM | > 100 µM | 36.7 µM | 28.2 µM
27 | N#Cc1c(-c2ccccc2)[nH]c2ccc(Cl)cc2c1=O | > 100 µM | > 100 µM | 51.1 µM | > 100 µM | > 100 µM | > 100 µM | > 100 µM | 59.9 µM | > 100 µM | > 100 µM
28 | O=C1c2ccsc2C(=O)c2sc(CO)cc21 | 0.855 µM | 3.72 µM | 0.994 µM | < 0.0178 µM | 0.394 µM | 0.0614 µM | 0.0163 µM | 0.218 µM | 0.0993 µM | 2.31 µM
29 | CCOC(=O)Cc1nc2cc(F)c(F)cc2[nH]c1=O | > 100 µM | > 100 µM | > 100 µM | > 100 µM | > 100 µM | > 100 µM | > 100 µM | > 100 µM | > 100 µM | > 100 µM
30 | CC1(C)C[C@@H]2C1CCC1(C)CC2(O)CC[C@H]1O (stereo not given in full) | > 100 µM | > 100 µM | > 100 µM | > 100 µM | > 100 µM | > 100 µM | > 100 µM | > 100 µM | > 100 µM | > 100 µM
31 | Nc1nc(-[n+]2ccc(-c3ccncc3)cc2)nc(Cl)c1Cl | 57.9 µM | 38.9 µM | 48 µM | > 100 µM | 54.9 µM | > 100 µM | > 100 µM | > 100 µM | 40.8 µM | 34.6 µM
32 | CC(CC[C@@]1(C)C(=O)CCC2O[C@]21C)[C@H]1C[C@@H](c2ccoc2)OC1=O (stereo not given in full) | 63.1 µM | 47.6 µM | 86.9 µM | > 100 µM | > 100 µM | 70.8 µM | > 100 µM | > 100 µM | > 100 µM | 94.6 µM
33 | CCCc1c(O)nc(Nc2nc3ccccc3[nH]2)[nH]c1=O | > 100 µM | > 100 µM | > 100 µM | > 100 µM | > 100 µM |  | > 100 µM | > 100 µM | > 100 µM | > 100 µM
34 | CCOC(=O)C1C(=O)CC1(C)C (stereo not given) | > 10 µM | > 10 µM | > 10 µM | > 10 µM | > 10 µM | > 10 µM | > 10 µM | > 10 µM | > 10 µM | > 10 µM
35 | COC(=O)c1cc2c(cc1CC(Cc1ccc3c(c1)CCCC3)C(=O)OC)CCCC2 (stereo not given) | > 100 µM | 29.7 µM | > 100 µM | > 100 µM | > 100 µM | > 100 µM | > 100 µM | > 100 µM | > 100 µM | > 100 µM
36 | O=c1c2ccccc2nc(Cc2nc(-c3ccc(Cl)cc3)cs2)n1-c1ccc(Cl)cc1 | > 100 µM | > 100 µM | > 100 µM | > 100 µM | > 100 µM | > 100 µM | > 100 µM | > 100 µM | > 100 µM | > 100 µM
